One compound from US20260125356A1, “TREATMENT OF LEISHMANIASIS” (THE UNIVERSITY OF DURHAM, priority 2022, published 2026) can be followed below.

Structures are written as SMILES. Values after ≈ are worked out from the molar mass of the structure shown.

Data set [1] deals with L. donovani promastigotes. Kind of data set: L. donovani promastigote dose response assay (resazurin). The data set is classed as cell-based. As to conditions: Leishmania donovani, 72 h, read-out: EC50 (L. don)/μM. Background: Alamar Blue is a resazurin reagent that responds to reducing activity.
A short description of a further data set: Kinetic solubility. As to conditions: kinetic from dmso stock. An excerpt: All chemicals and solvents were sourced from commercial suppliers. Buffers were made up using purified water from a MilliQ® water purification system. Biorelevant buffers (FESSIF, FASSIF and FASSGF) were purchased from Biorelevant and made up according to manufacturer's instructions. 15% FBS (heat inactivated, South American origin, ThermoFisher scientific) in PBS (Fisher Scientific) was filter sterilised (0.22 μm Fisherbrand™ Sterile PES Syringe Filter, Fisher Scientific) before use. Sodium taurocholate was purchased from Merck.
λmax was determined for each compound from the UV-Vis absorption spectrum of a 200 LIM compound solution in buffer of interest using a Varian Cary® 100 UV-Vis Spectrophotometer. A calibration curve of λmax VS concentration was obtained by serial dilution of compound from 200 μM in the buffer of interest, correcting for background buffer absorption. For each sample, a DMSO solution of compound was incubated in buffer of interest (<5% DMSO) for 2 hrs at RT. The solution was filtered (0.22 μm Fisherbrand™ Sterile PES Syringe Filter, Fisher Scientific) or centrifuged (14,500 rpm, 10 min) to remove undissolved debris and the supernatant was removed and diluted as required. The corrected UV absorption of the supernatant at Amax Was measured using a Varian Cary® 100 UV-Vis Spectrophotometer and compared to the calibration curve to determine compound solubility.

In the next data set the test system is T. cruzi epimastigotes. Kind of data set: T. cruzi epimastigote dose response assay. It is filed as cell-based. To be noted: Trypanosoma cruzi, 72 h, read-out: EC50 (T. cruzi)/μM.
Data set [2] has as its system T. brucei bloodstream trypomastigotes. The experiment in a line: T. brucei bloodstream trypomastigote dose response assay. As to conditions: Trypanosoma brucei, 48 h, read-out: EC50 (T. brucei)/μM. It is filed as cell-based.
Data set [3] has as its system L. amazonensis intracellular amastigotes. The experiment in a line: Killing of intracellular amastigotes in infected peritoneal macrophages. It is filed as cell-based. To be noted: Leishmania amazonensis, Peritoneal macrophage, treated 48 h, read-out: EC50 (amastigote). The procedure: Peritoneal macrophages were plated at 2×10^5/well in 24 well-plate onto circular glass coverslips with medium RPMI+10% HIFCS. After 24 h, macrophages were infected with L. amazonensis (1:10) and cultured at 37″C for 4 h and washed to remove non internalized amastigotes. At 24 h post infection, cells were treated with serial dilutions of compound 53 or Pentostam for 48 h at 37° C. in medium RPMI+5% HIFCS. Afterwards, cells were stained with Rapid Panoptic and the number of intracellular amastigotes in 100 macrophages was counted. EC50 values were calculated by non-linear regression. Means±SD (n=2);
The ability of compound 53 to kill intracellular amastigotes for cells infected with L. amazonensis was assessed and the cytotoxicity of the compound was investigated. The results are shown in FIGS. 6 to 8 and Table 8 below.

Data set [4] is described as follows: Cytotoxicity against macrophages (resazurin). The data set is classed as cell-based. As to conditions: mouse, bone marrow-derived macrophages (BMDM), read-out: CC50 (macrophage). The procedure: Mouse bone marrow-derived macrophages (BMDM) were plated in 96 well-plate at 1×10^5/well with medium RPMI+10% HIFCS. After 24 h, compound 53 and Pentostam were added at the indicated concentrations, and cells cultured for further 48 h with medium RPMI+5% HIFCS. […] Pentostam CC50 was from curve regression extrapolation. Means±SD (n=5);
The selectivity index (SI) was calculated by dividing the half maximal cytotoxic concentration (CC50) by the half maximal effective concentration (EC50). CC50 was extrapolated for pentostam.

Another data set deals with visceral leishmaniasis. Kind of data set: In vivo efficacy against experimental visceral leishmaniasis. To be noted: single dose 10 mg/kg, BALB/c mice. An excerpt:
FIG. 9 evaluation of efficacy against visceral leishmaniasis in BALB/c mice in (A) the liver and (B) the spleen through Leishman donovani units (LDU) (n=4);
FIG. 10 evaluation of efficacy against visceral leishmaniasis in BALB/c mice in bone marrow (n=4);
FIG. 11 evaluation of efficacy against visceral leishmaniasis in BALB/c mice in (A) the liver and (B) the spleen through Limiting Dilution Assay (LDA) (n=4);
Mice were infected with 2×10^7 promastigotes and kept for 2 months. After 2 months mice were treated with a single dose of phosphate-buffered saline (PBS), an empty liposome formulation (E.Lip), 10 mg/kg of body weight of Drug 3R, 10 mg/kg of body weight of compound 53 (identified in the Figures as drug 10), a liposome composition comprising 10 mg/kg of body weight of Drug 3R (Lip Drug 3R) or a liposome composition comprising 10 mg/kg of body weight of compound 53 (Lip Drug 10). […] The mice were then kept for one month and then sacrificed. Infection in liver and spleen was determined through LDU and LDA (FIGS. 9 and 11), infection in bone marrow was determined by counting amastigotes/1000 cells (FIG. 10).
Liposomal compositions were prepared by incorporation of an active compound into the lipid bilayer of SA-bearing choline liposome (lipid ratio, 7:2). […]

In the next data set the test system is L. amazonensis-GFP. The experiment in a line: In vivo intralesional treatment of L. amazonensis-GFP (mouse ear). To be noted: 0.4 mg in 10 μL PBS, once a week for five weeks. The procedure: FIG. 12 evaluation of the parasitic load of intralesional treatment of L. amazonensis-GFP (mouse ear) after treatment with PBS, glucantime, compound 53 (VJL), clemastine fumarate (CF) or clemastine fumarate in a polymeric nanoparticle (NP-CF);
Mice were infected with L. amazonensis and were then treated intralesionally (IL) with five doses of 10 μL PBS only (control) or 10 μL of PBS containing 0.4 mg of glucantime, compound 53 (VJL), clemastine fumarate (CF) or clemastine fumarate in a polymeric nanoparticle (NP-CF). The mice were treated once a week for five weeks.

In another data set the test system is S. aureus (FDA209P). Kind of data set: Antibacterial MIC/growth assay, S. aureus. The data set is classed as cell-based. As to conditions: 16 hours at 37° C., absorbance 600 nm. The procedure: (§1) DMSO was used as a solvent control at a maximum final concentration of 10% (a greater percentage than would be achieved using the compounds at the concentrations in question). Plates were incubated at 37° C. with shaking for 16 hours before measuring absorbance at 600 nm. These values were then used to calculate percentage growth at each dilution of compound in comparison to growth in the absence of compound. The following day, the contents of each well were resuspended using a multichannel pipette, and 5 μl from each well was then applied to LB agar plates. These were incubated at 30° C. in a stationary incubator for 16 hours before imaging.

In data set [5] the test system is wild-type E. coli (BW25113). The experiment in a line: Antibacterial MIC/growth assay, wild-type E. coli. It is filed as cell-based. To be noted: 7.8 to 500 μM, 16 hours at 37° C. The procedure: as §1
For a further data set, the system named is ΔrfaC mutant E. coli. Kind of data set: Antibacterial MIC/growth assay, ΔrfaC mutant E. coli. The data set is classed as cell-based. As to conditions: 7.8 to 500 μM, 16 hours at 37° C. The procedure: as §1

Consider `CNC(=O)c1ccc(OCCCN2CCOCC2)cc1NC(=O)c1ccc([N+](=O)[O-])s1` [Compound 53, N-[2-(methylcarbamoyl)-5-[3″-(morpholin-4′″-yl)propoxy]phenyl]-5′-nitrothiophene-2′-carboxamide], for which the EC50 in data set [1] was 0.044 µM; with T. cruzi epimastigotes it was 3.8 ± 0.5 µM; in data set [2], 0.29 ± 0.1 µM; in data set [3] it was 0.6 ± 0.2 µg/mL (≈ 1.34 µM). Also, the solubility at 2 h in “Kinetic solubility” (FASSGF, fassgf or other biorelevant) was greater than 8000 µM; in the data set “Kinetic solubility” (FASSIF), 359 µM (≈ 161 µg/mL); in “Kinetic solubility” (FESSIF), 4700 µM (≈ 2110 µg/mL); in the data set “Kinetic solubility” (PBS, aqueous buffer), 29 µM (≈ 13 µg/mL). In [4], the CC50 at 48 h was 16 ± 1 µg/mL (≈ 35.7 µM). Moreover, the “antileishmanial effect in vivo (liver, spleen, bone marrow infection)” value in the data set with visceral leishmaniasis (compound alone) was “reasonable antileishmanial effect”. Moreover, in the data set on visceral leishmaniasis (delivered (iv) in a liposomal formulation), the “antileishmanial effect in vivo (liver, spleen, bone marrow infection), liposomal formulation” value is “very effective clearance”. The “parasitic load after intralesional treatment” value in the data set with L. amazonensis-GFP is recorded as “effective treatment”. Moreover, the “inhibition of growth of S. aureus” value in the data set on S. aureus (FDA209P) was “effective at inhibiting the bacteria at low concentrations”. In addition, the “inhibition of growth of wild-type E. coli” value in data set [5] is on record as “little effect”. Besides, the “inhibition of growth of ΔrfaC mutant E. coli” value in the data set with ΔrfaC mutant E. coli was “some reasonable activity”.

In general, solubility refers to the dissolved amount per volume that the medium holds. Higher therefore signals much dissolved substance. The term CC50 denotes the concentration at which the toxic effect on the cells reaches its halfway point.
